Like-named read-outs stand apart in the source and are kept apart here.
Biological target: T1, F508delCFTR (Homo sapiens, UniProt P13569, DEL508-508)
T1 construct: expressed in transfected cells; host or cells: CFBE41o- human lung derived epithelial cells (CFBE41o-F508delCFTR-HRP), doxycycline-inducible
Assay: Cell Surface Expression-Horse Radish Peroxidase (CSE-HRP) Assay;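 as to EC50 (with co-corrector): co-corrector chromenyl benzoic acid corrector at 2 or 3 µM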;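 as to Maximum % activity (without co-corrector): % of on-plate positive control chromenyl benzoic acid corrector at 2 or 3 µM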
Assay type: cell-based
Conditions: for Maximum % activity (with co-corrector) / Emax: maximum at any tested concentration; for Emax: read-out: Maximum % activity (without co-corrector)
Outline: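 Corrector compounds were given as 8-point 3-fold series from 20 or 30 μM, with or without a 2 μM co-corrector, for 18-24 h at 33 °C. Surface HRP was read by luminol luminescence as % of positive control; variable-Hill-slope sigmoidal fitting gave EC50 from triplicate plates.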

[1] = test compound alone, without co-corrector, read-out: EC50 (without co-corrector)
[2] = with co-corrector, read-out: EC50 (with co-corrector)

T1 sequence (P13569 with tags, fused parts or gaps DEL508-508): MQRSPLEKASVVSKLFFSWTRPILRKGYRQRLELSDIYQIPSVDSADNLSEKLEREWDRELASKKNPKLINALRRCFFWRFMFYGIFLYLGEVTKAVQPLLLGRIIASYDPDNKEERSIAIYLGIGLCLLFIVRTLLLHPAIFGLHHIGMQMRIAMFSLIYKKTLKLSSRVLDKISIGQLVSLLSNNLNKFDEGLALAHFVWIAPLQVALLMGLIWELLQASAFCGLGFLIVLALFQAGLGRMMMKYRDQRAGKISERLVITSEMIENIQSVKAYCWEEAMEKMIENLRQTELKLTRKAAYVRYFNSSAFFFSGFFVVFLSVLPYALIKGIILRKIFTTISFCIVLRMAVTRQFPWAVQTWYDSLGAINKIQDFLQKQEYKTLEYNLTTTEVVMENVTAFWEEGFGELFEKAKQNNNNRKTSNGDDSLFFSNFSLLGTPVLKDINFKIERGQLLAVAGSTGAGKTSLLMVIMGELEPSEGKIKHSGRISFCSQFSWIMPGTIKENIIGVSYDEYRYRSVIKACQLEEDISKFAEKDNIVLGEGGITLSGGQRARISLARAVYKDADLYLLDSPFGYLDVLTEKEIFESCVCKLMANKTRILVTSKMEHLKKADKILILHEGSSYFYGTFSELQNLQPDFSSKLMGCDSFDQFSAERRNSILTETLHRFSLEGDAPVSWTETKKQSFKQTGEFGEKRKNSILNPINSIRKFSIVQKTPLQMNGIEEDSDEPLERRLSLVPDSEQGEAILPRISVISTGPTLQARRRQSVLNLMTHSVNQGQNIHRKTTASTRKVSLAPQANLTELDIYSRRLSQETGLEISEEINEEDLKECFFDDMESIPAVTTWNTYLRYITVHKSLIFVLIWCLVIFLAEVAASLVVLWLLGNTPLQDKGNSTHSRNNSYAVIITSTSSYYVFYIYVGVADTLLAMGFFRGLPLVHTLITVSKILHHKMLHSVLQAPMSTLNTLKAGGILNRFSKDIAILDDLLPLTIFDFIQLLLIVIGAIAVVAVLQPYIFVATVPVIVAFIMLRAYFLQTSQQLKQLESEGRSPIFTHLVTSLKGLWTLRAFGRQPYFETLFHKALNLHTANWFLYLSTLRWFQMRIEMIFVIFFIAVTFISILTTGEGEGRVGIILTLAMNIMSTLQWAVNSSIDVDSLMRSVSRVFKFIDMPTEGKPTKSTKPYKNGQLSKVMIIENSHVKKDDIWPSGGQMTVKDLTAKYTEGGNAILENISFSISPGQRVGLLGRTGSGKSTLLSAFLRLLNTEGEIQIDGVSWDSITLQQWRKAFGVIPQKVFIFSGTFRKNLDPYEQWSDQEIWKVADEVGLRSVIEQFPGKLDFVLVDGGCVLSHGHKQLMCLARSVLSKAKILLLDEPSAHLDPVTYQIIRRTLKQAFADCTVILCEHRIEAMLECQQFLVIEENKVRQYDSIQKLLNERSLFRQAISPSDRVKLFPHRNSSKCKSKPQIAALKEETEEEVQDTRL

Compound | EC50 [1] [µM] | Maximum % activity (with co-corrector) (with co-corrector) | EC50 [2] [µM] | Emax (without co-corrector) [%] | Maximum % activity (with co-corrector) (test compound with co-corrector) | EC50 (test compound with co-corrector, read-out: EC50 (with co-corrector)) [µM] | Emax (test compound without co-corrector) [%] | EC50 (test compound without co-corrector, read-out: EC50 (without co-corrector)) [µM]
CN(C(=O)C1(c2ccc(Cl)cc2Cl)CC1)S(=O)(=O)c1ccc(Cl)cc1 [Example III-19, N-(4-chlorobenzene-1-sulfonyl)-1-(2,4-dichlorophenyl)-N-methylcyclopropane-1-carboxamide] | > 10 | + (<150) | > 10 | < 50 |  |  |  | 
CCOc1ccc(C(C)(C)COC)cc1C1(C(=O)NS(=O)(=O)c2cccc3nc(C)ccc23)CC1 [II-105] | < 3 | +++ (≥350) | < 3 | > 150 |  |  |  | 
CC(C)c1nc(C(F)(F)F)ccc1C1(C(=O)NS(=O)(=O)c2cccc3c2CCCN3)CC1 [Example GI-9, 1-[2-(propan-2-yl)-6-(trifluoromethyl)pyridin-3-yl]-N-(1,2,3,4-tetrahydroquinoline-5-sulfonyl)cyclopropane-1-carboxamide] | < 3 | +++ (≥350) | < 3 | > 150 |  |  |  | 
CO[C@H](C)COc1ccc(C)cc1C1(C(=O)NS(=O)(=O)c2cccc3nc(C)ccc23)CC1 [Example I-116, 1-{2-[(2R)-2-methoxypropoxy]-5-methylphenyl}-N-(2-methylquinoline-5-sulfonyl)cyclopropane-1-carboxamide] | < 3 | +++ (≥350) | < 3 | > 150 |  |  |  | 
O=C(NS(=O)(=O)c1ccccc1)C1(c2ccccc2)CC1 [Example III-6, N-(benzenesulfonyl)-1-phenylcyclopropane-1-carboxamide] | > 10 | ++ (≥150 and <350) | 3 to 10 | < 50 |  |  |  | 
O=C(NS(=O)(=O)C1CCNCC1)C1(c2ccc(Cl)cc2Cl)CC1 [Example III-77, 1-(2.4-dichlorophcnyl)-N-(piperidine-4-sulfonyl)cyclopropane-1-carboxamide] | > 10 | + (<150) | > 10 | < 50 |  |  |  | 
COc1ccc(C2CC2)cc1C1(C(=O)NS(=O)(=O)c2cccc3nc(C)ccc23)CC1 [II-60] |  | +++ (≥350) |  | > 150 |  |  |  | 
CCOc1ccc(C)cc1C1(C(=O)NS(=O)(=O)c2cccc3nc(OC)ccc23)CC1 [II-83] | < 3 | +++ (≥350) | < 3 | > 150 |  |  |  | 
Cc1ccccc1S(=O)(=O)NC(=O)C1(c2cccc(Cl)c2)CCCC1 [Example III-83, 1-(3-chlorophenyl)-N-(2-methylbenzene-1-sulfonyl)cyclopentane-1-carboxamide] | > 10 | ++ (≥150 and <350) | > 10 | < 50 |  |  |  | 
COc1ccc(C#N)cc1C1(C(=O)NS(=O)(=O)c2cccc3c2CCCN3)CC1 [Example III-100, 1-(5-cyano-2-methoxyphenyl)-N-(1,2,3,4-tetrahydroquinoline-5-sulfonyl)cyclopropane-1-carboxamide] | 3 to 10 | +++ (≥350) | 3 to 10 | > 150 |  |  |  | 
COc1cnc(OCC2CC2)c(C2(C(=O)NS(=O)(=O)c3cccc4[nH]ccc34)CC2)c1 [Example GI-88, 1-[2-(cyclopropylmethoxy)-5-methoxypyridin-3-yl]-N-(1H-indole-4-sulfonyl)cyclopropane-1-carboxamide] |  |  |  |  | +++ (≥350) | < 3 | > 150 | < 3
COc1ccc(C2(OC)COC2)cc1C1(C(=O)NS(=O)(=O)c2cccc3ncccc23)CC1 [Example III-128, 1-[2-methoxy-5-(3-methoxyoxetan-3-yl)phenyl]-N-(quinoline-5-sulfonyl)cyclopropane-1-carboxamide] | 3 to 10 | ++ (≥150 and <350) | 3 to 10 | < 50 |  |  |  | 
CCOc1ccc(C2(OC)CCC2)cc1C1(C(=O)NS(=O)(=O)c2cccc3ncccc23)CC1 [Example I-102, 1-[2-ethoxy-5-(1-methoxycyclobutyl)phenyl]-N-(quinoline-5-sulfonyl)cyclopropane-1-carboxamide] | < 3 | +++ (≥350) | < 3 | > 150 |  |  |  | 
Cc1ccc(S(=O)(=O)NC(=O)C2(c3cccc(Cl)c3)CC2)cc1C [Example III-74, 1-(3-chlorophenyl)-N-(3,4-dimethylbenzene-1-sulfonyl)cyclopropane-1-carboxamide] | > 10 | + (<150) | > 10 | < 50 |  |  |  | 

Second part, the compound after the results:

EC50 [1] [µM] | Maximum % activity (with co-corrector) (with co-corrector) | EC50 [2] [µM] | Emax (without co-corrector) [%] | Maximum % activity (with co-corrector) (test compound with co-corrector) | EC50 (test compound with co-corrector, read-out: EC50 (with co-corrector)) [µM] | Emax (test compound without co-corrector) [%] | EC50 (test compound without co-corrector, read-out: EC50 (without co-corrector)) [µM] | Compound
< 3 | +++ (≥350) | < 3 | > 150 |  |  |  |  | COc1cc(C2(C(=O)NS(=O)(=O)c3cccc4nc(N)ccc34)CC2)c(OCC(C)C)cn1 [Example I-92, N-(2-aminoquinoline-5-sulfonyl)-1-[2-methoxy-5-(2-methylpropoxy)pyridin-4-yl]cyclopropane-1-carboxamide]
3 to 10 | +++ (≥350) | < 3 | > 150 |  |  |  |  | Cc1cnc(OCC(C)C)c(C2(C(=O)NS(=O)(=O)c3cccc4[nH]ncc34)CC2)c1 [Example III-130, N-(1H-indazole-4-sulfonyl)-1-[5-methyl-2-(2-methylpropoxy)pyridin-3-yl]cyclopropane-1-carboxamide]
< 3 | +++ (≥350) | < 3 | > 150 |  |  |  |  | COc1cc(C)ccc1C1(C(=O)NS(=O)(=O)c2cccc3ncccc23)CC1 [II-63]
< 3 | +++ (≥350) | < 3 | > 150 |  |  |  |  | CC(C)COc1ncc(N(C)C)cc1C1(C(=O)NS(=O)(=O)c2cccc3ncccc23)CC1 [II-112]
3 to 10 | +++ (≥350) | 3 to 10 | 50 to 150 |  |  |  |  | COc1ccc(C)nc1C1(C(=O)NS(=O)(=O)c2cccc3ncccc23)CC1 [Example III-124, 1-(3-methoxy-6-methylpyridin-2-yl)-N-(quinoline-5-sulfonyl)cyclopropane-1-carboxamide]
< 3 | +++ (≥350) | < 3 | > 150 |  |  |  |  | CCOc1ccc(C(C)(C)OC)cc1C1(C(=O)NS(=O)(=O)c2cccc3ncccc23)CC1 [II-97]
3 to 10 | +++ (≥350) | < 3 | > 150 |  |  |  |  | COc1cc(C2(C(=O)NS(=O)(=O)c3cccc4[nH]ncc34)CC2)c(OCC(C)C)cn1 [II-91]
< 3 |  | < 3 |  |  |  |  |  | COc1ccc(C2CC2)cc1C1(C(=O)NS(=O)(=O)c2cccc3ncccc23)CC1 [Example I-13, 1-(5-cyclopropyl-2-methoxyphenyl)-N-(quinoline-5-sulfonyl)cyclopropane-1-carboxamide]
< 3 | +++ (≥350) | < 3 | > 150 |  |  |  |  | CC(C)Oc1ncc(Br)cc1C1(C(=O)NS(=O)(=O)c2cccc3ncccc23)CC1 [Example GI-1, 1-{5-bromo-2-[(propan-2-yl)oxy]pyridin-3-yl}-N-(quinoline-5-sulfonyl)cyclopropane-1-carboxamide]
